Experimental data published in patent publication US7208502B2, “Methods of treating conditions associated with an Edg-3 receptor” (Maniv Energy Capital, priority 2002, dated 2007).

Columns and labels:
Angiotensin AT2 = target: T1, Angiotensin AT2 (Homo sapiens, UniProt P50052); assay: Radioligand binding assay, 125I CGP-42112A; conditions: 10 μM; significance criteria ≧50% of max stimulation or inhibition
T1 construct: expressed in transfected cells; host or cells: HeLa cells
T1 sequence (P50052 1-363): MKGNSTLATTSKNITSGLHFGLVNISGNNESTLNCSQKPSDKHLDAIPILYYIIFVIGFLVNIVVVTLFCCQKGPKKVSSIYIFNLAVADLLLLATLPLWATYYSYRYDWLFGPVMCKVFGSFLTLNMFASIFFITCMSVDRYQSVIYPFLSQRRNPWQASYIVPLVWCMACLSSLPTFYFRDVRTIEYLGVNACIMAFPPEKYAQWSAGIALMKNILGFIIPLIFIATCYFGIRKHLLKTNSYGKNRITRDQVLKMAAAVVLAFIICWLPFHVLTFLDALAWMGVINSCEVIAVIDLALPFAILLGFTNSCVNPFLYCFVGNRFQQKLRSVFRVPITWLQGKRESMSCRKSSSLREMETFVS
Experimental: (§1) In order to test the selectivity of compounds, various enzyme assays as well as radioligand binding assays were performed using numerous non-Edg receptor targets as listed below.
(§2) A radioligand binding assay was performed using adrenergic α1 according to the method of Greengrass and Bremner 1979, Eur. J. Pharmacol. 55:323–326. A radioligand binding assay was performed using adrenergic α2 according to the method of Boyajian and Leslie, 1987, J. Pharmacol. Exp. Ther. 241:1092–1098. A radioligand binding assay was performed using adrenergic β according to the method of Feve et al., 1994, Proc. Natl. Acad. Sci. USA 91:5677–5681. A radioligand binding assay was performed using angiotensin AT2 according to the method of Whitebread et al., 1991, Biochem. Biophys. Res. Comm. 181:1365–1371. A radioligand binding assay was performed using calcium channel Type L, dihydropyridine according to the method of Ehlert et al., 1982, Life Sci. 30:2191–2202. A radioligand binding assay was performed using dopamine D2L according to the method of Bunzo et al., 1988, Nature 336:783–787. A radioligand binding assay was performed using endothelin ETA according to the method of Mihara et al., 1994, J. Phrmacol. Exp Ther. 268:1122–1127. A radioligand binding assay was performed using histamine H1 Central according to the method of Hill et al., 1978, J. Neurochem. 31:997–1004. […]
(§3) Quantitation Method: Radioligand Binding […]

Edg-1 = target: T2, Edg-1 (Homo sapiens, UniProt P21453); assay: Intracellular calcium assay, S1P-stimulated, HTC cells expressing Edg-1; type: cell-based; conditions: concentrations as high as 20 µM
T2 construct: expressed in transfected cells; host or cells: HTC rat hepatoma cells
T2 sequence (P21453 whole entry): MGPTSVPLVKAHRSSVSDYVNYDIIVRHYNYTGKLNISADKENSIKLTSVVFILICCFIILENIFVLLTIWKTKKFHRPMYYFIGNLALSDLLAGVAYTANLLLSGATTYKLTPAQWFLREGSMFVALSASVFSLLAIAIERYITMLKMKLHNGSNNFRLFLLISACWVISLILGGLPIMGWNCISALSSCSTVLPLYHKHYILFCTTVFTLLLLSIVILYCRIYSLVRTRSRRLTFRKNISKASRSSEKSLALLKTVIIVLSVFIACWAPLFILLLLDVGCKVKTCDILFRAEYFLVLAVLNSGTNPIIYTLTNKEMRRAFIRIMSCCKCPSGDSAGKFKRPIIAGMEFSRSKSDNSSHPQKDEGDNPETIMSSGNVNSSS

[1] = system: Adrenergic α1, non-selective; assay: Radioligand binding assay, 3H Prazosin; design: species or system Wistar Rat; conditions: 10 μM; significance criteria ≧50% of max stimulation or inhibition
Experimental: as §1, §2, §3

Edg-2 = target: T3, Edg-2 (Homo sapiens, UniProt Q92633); assay: Intracellular calcium assay, LPA-stimulated, HTC cells expressing Edg-2; type: cell-based; conditions: concentrations as high as 20 µM
T3 construct: expressed in transfected cells; host or cells: HTC rat hepatoma cells
T3 sequence (Q92633 whole entry): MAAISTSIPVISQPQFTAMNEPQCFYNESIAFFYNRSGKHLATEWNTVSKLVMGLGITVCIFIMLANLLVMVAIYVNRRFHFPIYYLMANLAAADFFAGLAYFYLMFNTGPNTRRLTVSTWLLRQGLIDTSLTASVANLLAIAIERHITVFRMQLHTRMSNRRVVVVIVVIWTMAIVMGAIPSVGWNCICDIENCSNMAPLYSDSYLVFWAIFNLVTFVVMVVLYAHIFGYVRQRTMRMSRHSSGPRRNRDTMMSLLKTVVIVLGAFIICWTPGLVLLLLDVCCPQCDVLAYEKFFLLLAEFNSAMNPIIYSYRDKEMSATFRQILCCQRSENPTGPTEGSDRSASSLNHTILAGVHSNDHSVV

Edg-7 = target: T4, Edg-7 (Homo sapiens, UniProt Q9UBY5); assay: Intracellular calcium assay, LPA-stimulated, HTC cells expressing Edg-7; type: cell-based; conditions: concentrations as high as 20 µM
T4 construct: expressed in transfected cells; host or cells: HTC rat hepatoma cells
T4 sequence (Q9UBY5 1-353): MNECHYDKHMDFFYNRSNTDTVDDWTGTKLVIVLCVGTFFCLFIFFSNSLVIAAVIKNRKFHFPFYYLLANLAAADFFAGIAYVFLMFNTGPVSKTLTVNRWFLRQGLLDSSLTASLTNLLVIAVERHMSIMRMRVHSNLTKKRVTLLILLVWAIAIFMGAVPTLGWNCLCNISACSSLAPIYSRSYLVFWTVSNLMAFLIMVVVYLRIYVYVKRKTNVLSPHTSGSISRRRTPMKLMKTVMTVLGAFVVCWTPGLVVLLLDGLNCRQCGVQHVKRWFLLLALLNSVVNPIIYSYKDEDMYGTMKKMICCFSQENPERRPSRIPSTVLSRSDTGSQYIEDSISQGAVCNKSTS

Edg-4 = target: T5, Edg-4 (Homo sapiens, UniProt Q9HBW0); assay: Intracellular calcium assay, LPA-stimulated, HTC cells expressing Edg-4; type: cell-based; conditions: concentrations as high as 20 µM
T5 construct: expressed in transfected cells; host or cells: HTC rat hepatoma cells
T5 sequence (Q9HBW0 whole entry): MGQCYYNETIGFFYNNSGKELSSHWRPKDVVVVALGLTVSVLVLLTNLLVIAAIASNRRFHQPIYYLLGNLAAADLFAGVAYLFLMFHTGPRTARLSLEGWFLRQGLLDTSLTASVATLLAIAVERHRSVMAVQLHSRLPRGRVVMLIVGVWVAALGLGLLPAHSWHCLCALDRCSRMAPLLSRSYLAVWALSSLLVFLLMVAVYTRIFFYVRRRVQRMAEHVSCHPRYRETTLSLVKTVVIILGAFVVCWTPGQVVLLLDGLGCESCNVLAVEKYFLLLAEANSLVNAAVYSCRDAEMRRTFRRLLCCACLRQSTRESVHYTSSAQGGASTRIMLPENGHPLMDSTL

Adrenergic β = assay: Radioligand binding assay, 3H Dihydroaplenolol; design: species or system Wistar rat; conditions: 10 μM; significance criteria ≧50% of max stimulation or inhibition
Experimental: as §1, §2, §3

Adrenergic α2 = assay: Radioligand binding assay, 3H Rauwolscine; design: species or system Wistar rat; conditions: 10 μM; significance criteria ≧50% of max stimulation or inhibition
Experimental: as §1, §2, §3

Histamine H1, Central = target: T6, Histamine H1, Central (Cavia porcellus, UniProt P31389); assay: Radioligand binding assay, 3H Pyrilamine; design: species or system Guinea pig; conditions: 10 μM; significance criteria ≧50% of max stimulation or inhibition
T6 construct: from tissue; host or cells: guinea pig cerebellum
T6 sequence (P31389 whole entry): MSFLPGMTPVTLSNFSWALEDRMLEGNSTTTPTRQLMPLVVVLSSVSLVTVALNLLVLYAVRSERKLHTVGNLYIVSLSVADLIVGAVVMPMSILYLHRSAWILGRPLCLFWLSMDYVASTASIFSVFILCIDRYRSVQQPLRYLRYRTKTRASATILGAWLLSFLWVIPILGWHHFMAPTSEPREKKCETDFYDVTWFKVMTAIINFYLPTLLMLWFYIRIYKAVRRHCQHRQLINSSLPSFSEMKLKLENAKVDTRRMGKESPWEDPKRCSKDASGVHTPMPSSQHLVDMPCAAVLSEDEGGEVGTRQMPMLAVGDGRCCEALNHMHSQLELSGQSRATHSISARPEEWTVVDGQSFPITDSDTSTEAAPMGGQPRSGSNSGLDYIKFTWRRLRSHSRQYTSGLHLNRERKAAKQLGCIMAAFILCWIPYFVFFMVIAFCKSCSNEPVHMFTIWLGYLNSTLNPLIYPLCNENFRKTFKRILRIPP
Experimental: as §1, §2, §3

Cc1c(-c2ccccc2)nc2ccccc2c1C(=O)NCc1ccc(F)cc1 [Compound 101, 3-methyl-2-phenyl-quinoline-4-carboxylic acid 4-fluoro-benzylamide]
did not inhibit: inhibition of S1P-stimulated calcium increases, Edg-1 (Edg-1) | inhibition of LPA-stimulated calcium increases, Edg-2 (Edg-2) | inhibition of LPA-stimulated calcium increases, Edg-7 (Edg-7) | inhibition of LPA-stimulated calcium increases, Edg-4 (Edg-4)
no activity: activity in standard binding assay, Angiotensin AT2 (Angiotensin AT2) | activity in standard binding assay, Adrenergic α1 [1] | activity in standard binding assay, Adrenergic β (Adrenergic β) | activity in standard binding assay, Adrenergic α2 (Adrenergic α2) | activity in standard binding assay, Histamine H1, Central (Histamine H1, Central)
